Columns and labels:
[1] = test system: cytochrome P-450 (CYP) 3A; conditions: cited from earlier work
[2] = test system: Mycobacterium avium ATCC700898; assay: Test1: mouse lung infection model, CFU in lungs after 2 weeks of treatment
Description: There were 9 study groups and 4 mice per group
All treatments were evaluated on Mycobacterium avium ATCC700898.
All formulations prepared in 20% Tween20, 80% aq. (20% HP-ß-CD and 0. 6% HPMC, pH3).
All formulations were solutions and prepared every day.
Time Schedule, after mice were infected.
The mice were infected with Mycobacterium avium strain.
When 0.07 mL of this dilution is injected, each mouse receives 10^6 bacteria.
36 female 8-weeks old BALB/c mice, Charles River, were inoculated intranasally with 0.07 mL of a bacterial suspension containing ±10^6 colony forming units (CFU). […]
The effectiveness of treatments was assessed by counting the numbers of colony-forming-units (CFU) in the lungs. • 1.8 mL Mueller Hinton Broth (MHB) was added to each homogenization tube containing lung. • Lungs were homogenized, and four 10-fold serial dilutions were made in MHB. • From each individual lung, 100 μL of the undiluted suspension and four serial 10-fold dilutions, were plated on 7H10 agar plates. • CFU's were counted after incubation at 35° C. for 2 weeks. • The bactericidal effect of the treatment was defined as a significant decrease of the mean number of CFU in the treated group compared to pre-treatment value.

[3] = test system: Mycobacterium avium ATCC700898; assay: Test2: mouse lung infection model, CFU in lungs after 2 weeks of treatment; type: in vivo; conditions: day 15, CAM 200 mg/kg
Description: There were 6 study groups and 4 mice per group
(§1) Almost protocol was the same as the protocol described in Test1 above.

cytochrome bc1 = cytochrome bc1 (Mycobacterium tuberculosis, UniProt P9WP37); conditions: described in WO2017/049321 (HT-21) and WO2011/113606 (Q203); cited from earlier work
Sequence of cytochrome bc1 (P9WP37 whole entry, looked up): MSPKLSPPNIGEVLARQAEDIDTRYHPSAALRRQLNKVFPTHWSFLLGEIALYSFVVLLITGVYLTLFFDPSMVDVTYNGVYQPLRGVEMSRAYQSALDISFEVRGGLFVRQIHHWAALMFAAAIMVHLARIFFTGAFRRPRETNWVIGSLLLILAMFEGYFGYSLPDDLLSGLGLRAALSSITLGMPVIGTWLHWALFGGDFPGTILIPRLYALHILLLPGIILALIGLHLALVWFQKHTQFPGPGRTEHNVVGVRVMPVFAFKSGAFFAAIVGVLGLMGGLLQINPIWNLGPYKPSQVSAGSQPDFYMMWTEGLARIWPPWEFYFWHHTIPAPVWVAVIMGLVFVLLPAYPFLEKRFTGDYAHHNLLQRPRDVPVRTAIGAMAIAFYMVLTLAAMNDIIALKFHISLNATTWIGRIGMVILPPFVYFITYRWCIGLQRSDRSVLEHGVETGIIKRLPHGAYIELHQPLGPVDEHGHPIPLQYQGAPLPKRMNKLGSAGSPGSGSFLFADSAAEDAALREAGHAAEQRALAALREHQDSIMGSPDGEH

TB = conditions: in vitro and in vivo mouse model; cited from earlier work
[4] = test system: Mycobacterium avium ATCC700898; assay: Test3: mouse lung infection model, CFU in lungs after 2 weeks of treatment; type: in vivo; conditions: day 15, AZM 10 mg/kg, RFP 10 mg/kg, ETB 100 mg/kg, CFZ 20 mg/kg, Q203 5 mg/kg
Description: as §1

MAC = conditions: pulmonary disease patients infected by MAC; relapse still occurred; cited from earlier work
M. intracellulare = conditions: in vitro, majority of M. intracellulare isolates; cited from earlier work
M. avium = conditions: in vitro; cited from earlier work

CC[C@H]1OC(=O)[C@H](C)[C@@H](O[C@H]2C[C@@](C)(OC)[C@@H](O)[C@H](C)O2)[C@H](C)[C@@H](O[C@@H]2O[C@H](C)C[C@H](N(C)C)[C@H]2O)[C@](C)(OC)C[C@@H](C)C(=O)[C@H](C)[C@@H](O)[C@]1(C)O [CAM, Clarithromycin]
inhibition of CYP3A [1]: inhibits
Mean Log10 (CFU in lungs) ([2]; BALB/c mice, day 15, oral once daily, 10 doses, CAM 200 mg/kg, RFP 20 mg/kg, ETB 100 mg/kg, CFZ 20 mg/kg): 3.98
drop in mean log 10 CFU from Control 2 [3]: 1.0
Mean Log10 (CFU in lungs) ([3]; CFZ 20 mg/kg, HT-21 5 mg/kg or Q203 5 mg/kg): 4.85

CCc1nc2cc(C)ccn2c1C(=O)NCc1ccc(N2CCC(c3ccc(OC(F)(F)F)cc3)CC2)cc1 [Q203]
cytochrome bc1 inhibitory activity (cytochrome bc1): excellent cytochrome bc1 inhibitory activity
growth of TB (TB): inhibited the growth of TB

CC[C@H]1OC(=O)[C@H](C)[C@@H](O[C@H]2C[C@@](C)(OC)[C@@H](O)[C@H](C)O2)[C@H](C)[C@@H](O[C@@H]2O[C@H](C)C[C@H](N(C)C)[C@H]2O)[C@](C)(O)C[C@@H](C)CN(C)[C@H](C)[C@@H](O)[C@]1(C)O [AZM, Azithromycin]
Mean Log10 (CFU in lungs) [4]: 6.19
inhibition of CYP3A [1]: does not inhibit

Cc1ccn2c(C(=O)NCc3ccc(N4CCCN(c5ccc(C(F)(F)F)cc5)CC4)c(F)c3)c(C)nc2c1 [HT-21]
cytochrome bc1 inhibitory activity (cytochrome bc1): excellent cytochrome bc1 inhibitory activity
efficacy (CFU in lungs), in words ([2]; HT-21 200 mg/kg added to clarithromycin+clofazimine, cut off 2.00): the effect reached plateau

CC(C)/N=c1\cc2n(-c3ccc(Cl)cc3)c3ccccc3nc-2cc1Nc1ccc(Cl)cc1 [CFZ, Clofazimine]
proportion of patients converted to negative cultures (MAC): significantly greater proportion
MIC (M. intracellulare): < 1 µg/mL
MIC (M. avium): 1 to 4 µg/mL

Reference: patent US20220235047A1, “A MEDICAMENT FOR TREATING MYCOBACTERIAL INFECTION CHARACTERIZED BY COMBINING A CYTOCHROME bc1 INHIBITOR WITH CLARITHROMYCIN OR AZITHROMYCIN AND CLOFAZIMINE” (priority 2019, published 2022)
